Consider eight compounds from patent US20140288074A1, “FUNGICIDAL PYRAZOLES” (E I DU PONT DE NEMOURS AND COMPANY, priority 2013, published 2014).

Data set [1] concerns Blumeria graminis f. sp. tritici. Nature of the data set: Test G: preventive spray on wheat seedlings, wheat powdery mildew, visual disease rating.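 For all read-outs here: rated 8 days after spore dust inoculation at 20 °C.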 It is filed as in vivo. As to conditions: 200 ppm test suspension, Blumeria graminis f. sp. tritici inoculated the day after spraying; for pest or weed control at 200 ppm: 192 h. As to the method: General protocol for preparing test suspensions for Tests A-G: the test compounds were first dissolved in acetone in an amount equal to 3% of the final volume and then suspended at the desired concentration (in ppm) in acetone and purified water (50/50 mix by volume) containing 250 ppm of the surfactant Trem® 014 (polyhydric alcohol esters). The resulting test suspensions were then used in Tests A-G. Each test was conducted in triplicate, and the results were averaged. Spraying a 200 ppm test suspension to the point of run-off on the test plants was the equivalent of a rate of 800 g/ha. Unless otherwise indicated, the rating values indicate a 200 ppm test suspension was used. (An asterisk “*” next to the rating value indicates a 40 ppm test suspension was used.) The test suspension was sprayed to the point of run-off on wheat seedlings. The following day the seedlings were inoculated with a spore dust of Blumeria graminis f. sp. tritici (also known as Erysiphe graminis f. sp. tritici, the causal agent of wheat powdery mildew) and incubated in a growth chamber at 20° C. for 8 days, after which time visual disease ratings were made. Results for Tests A-G are given in Table A. In the Table, a rating of 100 indicates 100% disease control and a rating of 0 indicates no disease control (relative to the controls). A hyphen (-) indicates no test results.

The next data set relates to Septoria nodorum. Briefly: Test C: preventive spray on wheat seedlings, Septoria glume blotch, visual disease rating. It is filed as in vivo. To be noted: 200 ppm test suspension, Septoria nodorum inoculated the day after spraying; for pest or weed control at 200 ppm: Parastagonospora nodorum, 264 h. As to the method: General protocol for preparing test suspensions for Tests A-G: the test compounds were first dissolved in acetone in an amount equal to 3% of the final volume and then suspended at the desired concentration (in ppm) in acetone and purified water (50/50 mix by volume) containing 250 ppm of the surfactant Trem® 014 (polyhydric alcohol esters). The resulting test suspensions were then used in Tests A-G. Each test was conducted in triplicate, and the results were averaged. Spraying a 200 ppm test suspension to the point of run-off on the test plants was the equivalent of a rate of 800 g/ha. Unless otherwise indicated, the rating values indicate a 200 ppm test suspension was used. (An asterisk “*” next to the rating value indicates a 40 ppm test suspension was used.) The test suspension was sprayed to the point of run-off on wheat seedlings. The following day the seedlings were inoculated with a spore suspension of Septoria nodorum (the causal agent of Septoria glume blotch) and incubated in a saturated atmosphere at 24° C. for 48 h, and then moved to a growth chamber at 20° C. for 9 days, after which time visual disease ratings were made. Results for Tests A-G are given in Table A. In the Table, a rating of 100 indicates 100% disease control and a rating of 0 indicates no disease control (relative to the controls). A hyphen (-) indicates no test results.

The subject of another data set is Septoria tritici. Nature of the data set: Test D: preventive spray on wheat seedlings, wheat leaf blotch, visual disease rating. Format: in vivo. To be noted: 200 ppm test suspension, Septoria tritici inoculated the day after spraying; for pest or weed control at 200 ppm: Zymoseptoria tritici, 504 h. On the procedure: General protocol for preparing test suspensions for Tests A-G: the test compounds were first dissolved in acetone in an amount equal to 3% of the final volume and then suspended at the desired concentration (in ppm) in acetone and purified water (50/50 mix by volume) containing 250 ppm of the surfactant Trem® 014 (polyhydric alcohol esters). The resulting test suspensions were then used in Tests A-G. Each test was conducted in triplicate, and the results were averaged. Spraying a 200 ppm test suspension to the point of run-off on the test plants was the equivalent of a rate of 800 g/ha. Unless otherwise indicated, the rating values indicate a 200 ppm test suspension was used. (An asterisk “*” next to the rating value indicates a 40 ppm test suspension was used.) The test suspension was sprayed to the point of run-off on wheat seedlings. The following day the seedlings were inoculated with a spore suspension of Septoria tritici (the causal agent of wheat leaf blotch) and incubated in saturated atmosphere at 24° C. for 48 h. and then the seedlings were moved to a growth chamber at 20° C. for 19 additional days, after which time visual disease ratings were made. Results for Tests A-G are given in Table A. In the Table, a rating of 100 indicates 100% disease control and a rating of 0 indicates no disease control (relative to the controls). A hyphen (-) indicates no test results.

Data set [2] deals with Puccinia recondita f. sp. tritici. Briefly: Test F: preventive spray on wheat seedlings, wheat leaf rust, visual disease rating. It is filed as in vivo. As to conditions: 200 ppm test suspension, Puccinia recondita f. sp. tritici inoculated the day after spraying; for pest or weed control at 200 ppm: 168 h. On the procedure: General protocol for preparing test suspensions for Tests A-G: the test compounds were first dissolved in acetone in an amount equal to 3% of the final volume and then suspended at the desired concentration (in ppm) in acetone and purified water (50/50 mix by volume) containing 250 ppm of the surfactant Trem® 014 (polyhydric alcohol esters). The resulting test suspensions were then used in Tests A-G. Each test was conducted in triplicate, and the results were averaged. Spraying a 200 ppm test suspension to the point of run-off on the test plants was the equivalent of a rate of 800 g/ha. Unless otherwise indicated, the rating values indicate a 200 ppm test suspension was used. (An asterisk “*” next to the rating value indicates a 40 ppm test suspension was used.) The test suspension was sprayed to the point of run-off on wheat seedlings. The following day the seedlings were inoculated with a spore suspension of Puccinia recondita f. sp. tritici (the causal agent of wheat leaf rust) and incubated in a saturated atmosphere at 20° C. for 24 h, and then moved to a growth chamber at 20° C. for 6 days, after which time visual disease ratings were made. Results for Tests A-G are given in Table A. In the Table, a rating of 100 indicates 100% disease control and a rating of 0 indicates no disease control (relative to the controls). A hyphen (-) indicates no test results.

A further data set has as its system Alternaria solani. Briefly: Test B: preventive spray on tomato seedlings, tomato early blight, visual disease rating. Format: in vivo. To be noted: 200 ppm test suspension, Alternaria solani inoculated the day after spraying. As to the method: General protocol for preparing test suspensions for Tests A-G: the test compounds were first dissolved in acetone in an amount equal to 3% of the final volume and then suspended at the desired concentration (in ppm) in acetone and purified water (50/50 mix by volume) containing 250 ppm of the surfactant Trem® 014 (polyhydric alcohol esters). The resulting test suspensions were then used in Tests A-G. Each test was conducted in triplicate, and the results were averaged. Spraying a 200 ppm test suspension to the point of run-off on the test plants was the equivalent of a rate of 800 g/ha. Unless otherwise indicated, the rating values indicate a 200 ppm test suspension was used. (An asterisk “*” next to the rating value indicates a 40 ppm test suspension was used.) The test suspension was sprayed to the point of run-off on tomato seedlings. The following day the seedlings were inoculated with a spore suspension of Alternaria solani (the causal agent of tomato early blight) and incubated in a saturated atmosphere at 27° C. for 48 h, and then moved to a growth chamber at 20° C. for 5 days, after which time visual disease ratings were made. Results for Tests A-G are given in Table A. In the Table, a rating of 100 indicates 100% disease control and a rating of 0 indicates no disease control (relative to the controls). A hyphen (-) indicates no test results.

Another data set has as its system Botrytis cinerea. Nature of the data set: Test A: preventive spray on tomato seedlings, tomato Botrytis, visual disease rating. Format: in vivo. To be noted: 200 ppm test suspension, Botrytis cinerea inoculated the day after spraying. On the procedure: General protocol for preparing test suspensions for Tests A-G: the test compounds were first dissolved in acetone in an amount equal to 3% of the final volume and then suspended at the desired concentration (in ppm) in acetone and purified water (50/50 mix by volume) containing 250 ppm of the surfactant Trem® 014 (polyhydric alcohol esters). The resulting test suspensions were then used in Tests A-G. Each test was conducted in triplicate, and the results were averaged. Spraying a 200 ppm test suspension to the point of run-off on the test plants was the equivalent of a rate of 800 g/ha. Unless otherwise indicated, the rating values indicate a 200 ppm test suspension was used. (An asterisk “*” next to the rating value indicates a 40 ppm test suspension was used.) The test suspension was sprayed to the point of run-off on tomato seedlings. The following day the seedlings were inoculated with a spore suspension of Botrytis cinerea (the causal agent of tomato Botrytis) and incubated in saturated atmosphere at 20° C. for 48 h, and then moved to a growth chamber at 24° C. for 3 additional days, after which time visual disease ratings were made. Results for Tests A-G are given in Table A. In the Table, a rating of 100 indicates 100% disease control and a rating of 0 indicates no disease control (relative to the controls). A hyphen (-) indicates no test results.

Data set [3] has as its system Puccinia recondita f. sp. tritici. Briefly: Test E: spray after inoculation of wheat seedlings, wheat leaf rust, visual disease rating. It is filed as in vivo. As to conditions: 200 ppm test suspension, sprayed after inoculation with Puccinia recondita f. sp. tritici. As to the method: General protocol for preparing test suspensions for Tests A-G: the test compounds were first dissolved in acetone in an amount equal to 3% of the final volume and then suspended at the desired concentration (in ppm) in acetone and purified water (50/50 mix by volume) containing 250 ppm of the surfactant Trem® 014 (polyhydric alcohol esters). The resulting test suspensions were then used in Tests A-G. Each test was conducted in triplicate, and the results were averaged. Spraying a 200 ppm test suspension to the point of run-off on the test plants was the equivalent of a rate of 800 g/ha. Unless otherwise indicated, the rating values indicate a 200 ppm test suspension was used. (An asterisk “*” next to the rating value indicates a 40 ppm test suspension was used.) Wheat seedlings were inoculated with a spore suspension of Puccinia recondita f. sp. tritici (the causal agent of wheat leaf rust) and incubated in a saturated atmosphere at 20° C. for 24 h, and then moved to a growth chamber at 20° C. for 2 days. At the end of this time the, the test suspension was sprayed to the point of run-off on the wheat seedlings, and then the seedlings were moved back to the growth chamber at 20° C. for 4 days. Upon removal, visual disease ratings were made. Results for Tests A-G are given in Table A. In the Table, a rating of 100 indicates 100% disease control and a rating of 0 indicates no disease control (relative to the controls). A hyphen (-) indicates no test results.

On to `Cc1nn(C)c(NC(C)C)c1-c1ccc(F)cc1F` [Compound 1], for which, in data set [1], the “Test G rating (disease control)” value was found to be 0%. The “Test C rating (disease control)” value in the data set on Septoria nodorum is 0%. Besides, the “Test D rating (disease control)” value in the data set with Septoria tritici came out at 0%. The “Test F rating (disease control)” value in data set [2] is reported as 0%. In the data set with Alternaria solani, the “Test B rating (disease control)” value came to 0%. Also, in the data set on Botrytis cinerea, the “Test A rating (disease control)” value was 65%.
One may read the pest or weed control as how far the test organism was held down. Low values mean a weak effect, high ones a strong effect. In the case of `Cc1nn(C)c(C(O)C2CCCCC2)c1-c1c(F)cccc1Cl` (stereo not drawn) [Compound 16, 4-(2-chloro-6-fluorophenyl)-α-cyclohexyl-1,3-dimethyl-1H-pyrazole-5-methanol], the pest or weed control at 200 ppm was 100% in data set [1], 0% with Septoria nodorum, 100% in the data set with Septoria tritici and 79% in data set [2]. Further, in data set [3], the “Test E rating (disease control)” value is 0%. For the same compound, the “Test B rating (disease control)” value in the data set with Alternaria solani is 89%.
Take `CC=C(C)C(O)c1c(-c2c(F)cccc2Cl)c(C)nn1C` (stereo not drawn) [Compound 17]: the “Test G rating (disease control)” value in data set [1] amounted to 78%. The “Test C rating (disease control)” value in the data set on Septoria nodorum amounted to 0%. Also, the “Test D rating (disease control)” value in the data set with Septoria tritici is 72%. Further, the “Test E rating (disease control)” value in data set [3] turned out to be 9%. Further, the “Test F rating (disease control)” value in data set [2] came out at 74%. The “Test B rating (disease control)” value in the data set on Alternaria solani stood at 58%.
Turning to `CCC=C(C)C(O)c1c(-c2c(F)cccc2F)c(C)nn1C` (stereo not drawn) [Compound 18], in data set [1], the “Test G rating (disease control)” value came out at 60%. Besides, the “Test C rating (disease control)” value with Septoria nodorum was determined as 0%. Moreover, the “Test D rating (disease control)” value in the data set on Septoria tritici was determined as 24%. In addition, in data set [3], the “Test E rating (disease control)” value is listed as 9%. In data set [2], the “Test F rating (disease control)” value is reported as 18%. In addition, the “Test B rating (disease control)” value in the data set on Alternaria solani is given as 96%.
One may read the melting point as the temperature of the solid-liquid transition. As for `Cc1nn(C)c(N2CCC(C)CC2)c1-c1ccc(F)cc1Cl` [Compound 42, 1-[4-(2-chloro-4-fluorophenyl)-1,3-dimethyl-1H-pyrazol-5-yl]-4-methylpiperidine], the melting point was in the range of 98 to 100 °C. Further, the pest or weed control at 200 ppm in data set [1] is 0%. In the data set with Septoria nodorum, this compound returned a pest or weed control at 200 ppm of 0%. Also, the pest or weed control at 200 ppm with Septoria tritici came to 99%. The same compound yielded a pest or weed control at 200 ppm in data set [2] of 72%. This compound yielded a pest or weed control at 200 ppm in the data set with Botrytis cinerea (120 h) of 0%.
For the compound `Cc1nn(C)c(NC(C)C)c1-c1c(F)cc(F)cc1F` [Compound 49], the “Test G rating (disease control)” value in data set [1] is 0%. Also, the “Test C rating (disease control)” value in the data set with Septoria nodorum is on record as 98%. The “Test D rating (disease control)” value in the data set on Septoria tritici is given as 0%. Also, the “Test F rating (disease control)” value in data set [2] came out at 98%. The “Test A rating (disease control)” value with Botrytis cinerea was found to be 40%.
On to `CCN(CC)c1c(-c2c(F)cc(F)cc2F)c(C)nn1C` [Compound 50], for which the “Test G rating (disease control)” value in data set [1] was 0%. In addition, in the data set on Septoria nodorum, the “Test C rating (disease control)” value is reported as 0%. The “Test D rating (disease control)” value in the data set on Septoria tritici was 0%. Also, the “Test F rating (disease control)” value in data set [2] was 74%. Besides, the “Test A rating (disease control)” value in the data set on Botrytis cinerea is on record as 38%.
Turning to `COCCNc1c(-c2c(F)cc(F)cc2F)c(C)nn1C` [Compound 54], the “Test G rating (disease control)” value in data set [1] is reported as 0%. Further, the “Test C rating (disease control)” value in the data set with Septoria nodorum is given as 97%. For the same compound, the “Test D rating (disease control)” value with Septoria tritici is on record as 92%. The “Test F rating (disease control)” value in data set [2] is listed as 95%. The “Test A rating (disease control)” value with Botrytis cinerea turned out to be 0%.
